Experiments:
[1] = tested on: fecal microbiota; assay: Fecal microbiota analysis (16S rRNA), alpha and beta diversity; type: in vivo, human
Method: To determine significant differences between bacterial alpha diversity metrics (the measure of microbiome diversity within a single sample), a paired t-test was used between alpha diversity values of different sample groups (p<0.05). Significant differences in beta diversity (the measure of similarity or dissimilarity of multiple samples) between groups was determined using the qiime diversity beta-group-significance command in QIIME2 as well, which performs pairwise Permutational Multivariate Analysis of Variance (PERMANOVA) tests on beta diversity distance matrices (p<0.05). Differential abundance of taxa between sample groups were evaluated using Multivariate Analysis by Linear Models (MaAsLin) in R version 4.0.2 using the Maaslin2 command in the Maaslin2 R library on rarified taxonomy data generated by QIIME2 (p<0.05). Additional evaluation of differential abundance of taxa was performed using Analysis of Composition of Microbiomes (ANCOM) using the qiime composition ancom command after collapsing the feature table to the family level (level 5) using the qiime taxa collapse command on QIIME2. Data visualization was performed using the ggplot2 package, with data frame manipulation commands from the dplyr package, within the tidyverse collection of R packages.
Stool specimens were collected at four time points throughout the entire study protocol. The first two samples were collected before and after the first supplementation period while the final two samples were collected before and after the second supplementation period. All stool specimens were collected no more than 24-hours prior to that study participant being scheduled to complete their laboratory visit. All samples were immediately frozen after sample collection by the study participants. […]
A fecal microbiota analysis was further conducted. […] The Qubit Fluorometer (Thermo Fisher Scientific, San Francisco, Calif.) was used to quantify PCR product concentrations prior to combining the PCR products in equal quantities for purification with the Wizard SV Gel and PCR Cleanup kit (Promega, Madison, Wis.). […]

[2] = Bristol Stool Chart; type: in vivo, human; details: for Bristol Stool: GLU condition, mean ± SD
Description: The remainder of the study consisted of two identical patterns of testing with the exception of what supplementation protocol was followed. FIG. 1 provides a flowchart of the experimental design. Prior to each visit, food and physical activity logs were completed encompassing four days prior to the scheduled laboratory visit. The four days consisted of two weekend days and two weekdays. Each participant reported to the laboratory for a baseline measurement of height, weight, heart rate, and blood pressure. During this visit, participants completed the Bristol Stool Chart and Gastrointestinal Symptom Rating Scale (GSRS) to assess bowel habits and potential gastrointestinal symptoms. Participants were given instructions on how to collect a stool sample and were instructed to do so within 24 hours of each planned study visit. At the completion of this study visit, participants were provided with their first assigned supplement (either PLA [placebo] or GLU [glucosamine]) and instructed to begin supplementation 21 days prior to their second visit. Participants were instructed to collect their second stool sample on the day of their final supplementation dose. On the morning of their second study visit, participants reported to the laboratory after following identical pre-study instructions as previous visits (i.e., fasting, abstention from caffeine and exercise). Study participants again completed assessments for height, weight, heart rate, blood pressure, and questionnaires regarding their bowel habits and gastrointestinal symptoms while also providing their second stool sample and turning in completed food and activity logs. A washout period lasting a minimum of 14 days and a maximum of 21 days separated each phase of the crossover as shown in FIG. 1. […] In a double-blind manner, a glucosamine supplement (GLU) or a maltodextrin placebo (PLA) was distributed in identical opaque capsules to all participants. On a daily basis, participants were instructed to ingest three capsules, each containing 1,000 mg of glucosamine hydrochloride (GlucosaGreen®, TSI Group Ltd. MT, USA) or a placebo (maltodextrin) identical in appearance for a total of 21 days. Each visit at the beginning of the supplementation regimen (Visits 1 and 4, respectively; See FIG. 1) occurred on or before the first day of supplementation while the final day of supplementation occurred the day before each participant's follow-up visit for that study period (Visits 2 and 4, respectively). Participants were instructed to ingest the supplement 15-30 minutes before breakfast with eight fluid ounces of cold water. In the case of a missed dose, participants were instructed to consume the missed dose as soon as possible with a meal. […]

Cl.N[C@H]1C(O)O[C@H](CO)[C@@H](O)[C@@H]1O (stereo partly shown) [GLU, glucosamine hydrochloride]
Other alpha diversity measures (Observed OTUs or Shannon Evenness) ([1]; Post vs Pre, paired t-test p>0.05): not significantly altered
Changes in beta-diversity (unweighted Unifrac distances) ([1]; compared to baseline, PERMANOVA p>0.05): not significantly different
Alpha diversity of fecal bacterial communities, Faith's Phylogenetic Diversity (PD) ([1]; following GLU consumption compared to baseline, paired t-test p=4.59E-03): significantly decreased
Bristol Stool ([2]; Post 21 days, 3 x 1,000 mg/day oral): 3.6 ± 0.8
Bristol Stool ([2]; Pre (baseline)): 3.3 ± 0.8
Bristol Stool, % ([2]; PLA vs. GLU, between-group): −19.9%
Changes in Bristol Stool chart ratings within group ([2]; Post vs Pre, p=0.10): no significant changes

Source: US20220395522A1, “Methods of Use of Glucosamine for Increasing Nitrogen Retention” (TSI Bioproducts (Xuzhou) Co., Ltd., priority 2021, published 2022)
